*1 amine or outer side, *2 acyl side, *3 side chain or, on linkers, in order; H or OH if unused. Where a SMILES comes first, the peptide text is derived from it. Bridges are numbered along the chain shown (N, C = ends). [ ]: non-standard residue; d: D form. Diglycolyl = O=C(COCC(=O)[*:2])[*:1]; Cba = N[C@@H](CC1CCC1)C(=O)O; Nle = CCCC[C@H](N)C(=O)O

This assay deals with T1, MDM2 (Homo sapiens, UniProt Q00987).
T1 construct: made in house
As to the kind of experiment: Surface plasmon resonance (SPR) against captured GST-MDM2. Format: binding. The following applies: for koff / kon: SPR Biacore T200, 25 °C, PBS-P+, GST-MDM2 captured via anti-GST antibody on CM5 chip, 2-fold dilutions 250 nM to 3.91 nM, association 250 s, dissociation 400 s. On the procedure: SPR experiments were performed on a Biacore T200 instrument (GE Healthcare) at 25 °C in PBS-P+ buffer (10× stock; Cytiva Life Sciences #28995084). One mL PP 96-well plates (Greiner #780201) were used for dilution directly in the plates. Anti-GST antibody (Cytiva #27457701) was chemically immobilized on a CM5 series S sensor chip (Cytiva Life Sciences #29149604) by EDC/NHS-mediated coupling. For this, an amine coupling kit (Cytiva Life Sciences #BR100633) and the recommended protocol were followed with the following specifications: 20 μg/mL of antibody diluted in 10 mM NaAc pH 5.0 buffer flowed over both flow channels for 600 s (flow rate 10 μL min^–1).
Kinetic measurements consisted of ligand capture of GST-MDM2 (200 nM, 350 s injection, flow rate 10 μL min^–1, stabilization 60 s), followed by injections (association, 250 s; dissociation, 400 s; flow rate, 30 μL min^–1) of decreasing concentrations of compounds (2-fold cascade dilutions from the starting concentration). The chip was regenerated between cycles by one injection of regeneration solution (10 mM glycine-HCl at pH 1.5) for 10 s at a flow rate of 30 μL min^–1, followed by a 120 s stabilization period. Binding was measured as resonance units over time after blank subtraction, and the data were interpreted using Biacore T200 software (version 3.2). The KD values were calculated based on steady-state affinity (1:1 binding). […]
5. Surface Plasmon Resonance Results […]
dotted lines representing the fittings from which the kinetic values are calculated. The compounds […]
shown in Figure 6 are tested at 250 nM (highest concentration) with a 2-fold dilution series until 3.91 nM (lowest concentration).
SPR Curves of compounds 4.1 and 4.4
4.1: Concentrations tested: 125 nM to 3.91 nM (2-fold dilutions) – KD: ND
Supplementary Figure 4. SPR curve of compound 4.1 against MDM2

T1 sequence (Q00987 whole entry, species assumed): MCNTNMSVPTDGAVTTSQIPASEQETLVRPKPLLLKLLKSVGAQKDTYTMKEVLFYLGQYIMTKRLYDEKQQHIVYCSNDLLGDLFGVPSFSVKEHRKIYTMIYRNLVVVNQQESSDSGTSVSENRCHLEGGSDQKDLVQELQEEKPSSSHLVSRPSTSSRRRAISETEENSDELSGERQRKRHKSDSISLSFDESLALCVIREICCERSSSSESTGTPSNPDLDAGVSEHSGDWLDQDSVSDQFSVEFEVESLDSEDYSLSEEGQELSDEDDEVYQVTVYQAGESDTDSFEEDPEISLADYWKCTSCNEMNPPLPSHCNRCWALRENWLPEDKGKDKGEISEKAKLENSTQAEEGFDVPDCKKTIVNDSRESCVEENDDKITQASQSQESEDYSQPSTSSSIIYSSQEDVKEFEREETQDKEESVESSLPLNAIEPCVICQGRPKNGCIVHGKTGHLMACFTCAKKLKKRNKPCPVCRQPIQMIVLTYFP

`CCCC[C@H](NC(=O)[C@H](CC1CCC1)NC(=O)[C@H](CCC(N)=O)NC(=O)[C@H](C)NC(=O)[C@H](Cc1c[nH]c2ccccc12)NC(=O)[C@H](Cc1ccc(O)cc1)NC(=O)[C@H](CCC(N)=O)NC(=O)[C@H](CCCC)NC(=O)[C@H](Cc1ccccc1)NC(=O)[C@@H](NC(=O)[C@H](CC(C)C)NC(=O)CNC(C)=O)[C@@H](C)O)C(=O)N[C@@H](CO)C(=O)NCC(=O)N[C@@H](CCCNC(=N)N)C(N)=O` [1.1 (Linear)] (Ac-GLTF[Nle]QYWAQ[Cba][Nle]SGR-NH2; N-terminus and C-terminus assumed) registered a koff of 0.0022 s⁻¹ and a kon of 73000 M⁻¹ s⁻¹. For the setting “linear peptide without PNA versus PNA-constrained 1.1, 30 versus 0.7 nM”, this molecule returned a loss of binding of 40 fold.

Molecule `CCCC[C@H](NC(=O)[C@H](CC1CCC1)NC(=O)[C@H](CCC(N)=O)NC(=O)[C@H](C)NC(=O)[C@H](Cc1c[nH]c2ccccc12)NC(=O)[C@H](Cc1ccc(O)cc1)NC(=O)[C@H](CCC(N)=O)NC(=O)[C@H](CCCC)NC(=O)[C@H](Cc1ccc(F)c(F)c1)NC(=O)[C@@H](NC(=O)[C@H](CC(C)C)NC(=O)CNC(=O)CN(CCNC(=O)CN(CCNC(=O)CN(CCNC(=O)CN(CCNC(=O)[C@H](CCCNC(=N)N)NC(=O)COCCOCCNC(=O)[C@H](CCCNC(=N)N)NC(=O)CN(CCNC(=O)CN(CCNC(=O)CN(CCNC(=O)CN(CCNC(=O)CN(CCNC(=O)CN(CCNC(=O)CN(CCNC(=O)CN(CCNC(=O)[C@H](CCCNC(=N)N)NC(C)=O)C(=O)Cn1cnc2c(=O)[nH]c(N)nc21)C(=O)Cn1ccc(N)nc1=O)C(=O)Cn1ccc(N)nc1=O)C(=O)Cn1cnc2c(=O)[nH]c(N)nc21)C(=O)Cn1cc(C)c(=O)[nH]c1=O)C(=O)Cn1cnc2c(N)ncnc21)C(=O)Cn1cnc2c(=O)[nH]c(N)nc21)C(=O)Cn1cnc2c(=O)[nH]c(N)nc21)C(=O)Cn1ccc(N)nc1=O)C(=O)Cn1ccc(N)nc1=O)C(=O)Cn1cc(C)c(=O)[nH]c1=O)C(=O)Cn1cnc2c(N)ncnc21)[C@@H](C)O)C(=O)N[C@@H](CO)C(=O)NCC(=O)NCCN(CC(=O)NCCN(CC(=O)NCCN(CC(=O)NCCN(CC(=O)N[C@@H](CCCNC(=N)N)C(N)=O)C(=O)Cn1ccc(N)nc1=O)C(=O)Cn1cnc2c(=O)[nH]c(N)nc21)C(=O)Cn1cnc2c(=O)[nH]c(N)nc21)C(=O)Cn1ccc(N)nc1=O` [1.2 (PNA)] gave a koff of 0.002 s⁻¹ and a kon of 1.2e+06 M⁻¹ s⁻¹.

In the case of `CCCC[C@@H]1NC(=O)[C@H](CC2CCC2)NC(=O)[C@H](CCC(N)=O)NC(=O)[C@H](C)NC(=O)[C@H](Cc2c[nH]c3ccccc23)NC(=O)[C@H](Cc2ccc(O)cc2)NC(=O)[C@H](CCC(N)=O)NC(=O)[C@H](CCCC)NC(=O)[C@H](Cc2ccccc2)NC(=O)[C@H]([C@@H](C)O)NC(=O)[C@H](CC(C)C)NC(=O)CNC(=O)COCC(=O)NCCCC[C@@H](C(=O)N[C@@H](CCCNC(=N)N)C(N)=O)NC(=O)CNC(=O)[C@H](CO)NC1=O` [1.1 (Cyclic)] (GLTF[Nle]QYWAQ[Cba][Nle]SGKR-NH2; linker N-15 via Diglycolyl; C-terminus assumed), the koff stood at 0.0024 s⁻¹ and the kon was 320000 M⁻¹ s⁻¹.

What is called koff is a measure of how fast the partners let go of each other. Lower therefore signals a long-lived complex. In general, kon refers to the second-order rate constant of association. Read a low kon as slow association.

The values are drawn from publication PMC11522901, “Translation of Deoxyribonucleic Acid into Synthetic Alpha Helical Peptides for Darwinian Evolution” (JACS Au, 2024).
